Values quoted from earlier work in PubChem BioAssay AID1259409 (Chemical Carcinogenesis Research Information System (CCRIS), 2018).

Tested on: rodent chemically induced tumor inhibition, incidence and multiplicity
Experiment: CCRIS tumor inhibitor studies
Conditions: Carcinogen: 2,2'-DIHYDROXY-DI-N-PROPYLNITROSAMINE, 53609-64-6, 13147-25-6, Carcinogen: 2,2'-DIHYDROXY-DI-N-PROPYLNITROSAMINE, 53609-64-6, 13147-25-6, Dose [Inhibitor]: 0, Route [Inhibitor]: ORAL, Species: RAT, Promoter: NONE USED; for tumour outcome (control, treated, inhibition, significance): N-ETHYL-N-HYDROXYETHYLNITROSAMINE, Dose [Carcinogen]: 1000 MG/KG BW DHPN TWICE

O=P(O)(O)OC1C(OP(=O)(O)O)C(OP(=O)(O)O)C(OP(=O)(O)O)C(OP(=O)(O)O)C1OP(=O)(O)O (stereo not given)
outcome (N-ETHYL-N-HYDROXYETHYL- NITROSAMINE, 3,2'-DIMETHYL-4-, N-ETHYL-N-HYDROXYETHYL- NITROSAMINE, 3,2'-DIMETHYL-4-, 2% IN DIET BEGINNING 1 WK POST LAST CARCINOGEN DOSE AND CONTINUING FOR 32 WK (STUDY DURATION: 36 WK), Strain/Sex: F344/MALE, Target Tissue: Type of Lesion: URINARY BLADDER: PAPILLOMA, Dose [Carcinogen]: 1000 MG/KG/ IP DHPN 2X, 1500 MG/KG/ GAV EHEN 2X AND 75 MG/KG SC DMAB 3X GIVEN OVER THE INITIAL 3 WK PERIOD AT 3-4 D INTE): 0/14 (0%), 6/12 (50%), p<0.01n | tumour outcome (control, treated, inhibition, significance) (3,2'-DIMETHYL-1,4-, 3,2'-DIMETHYL-1,4-, 1% IN DIET FOR 4 WK BEGINNING 1 D PRIOR TO FIRST CARCINOGEN DOSE (STUDY DURATION: 36 WK), Strain/Sex: F344/MALE, Target Tissue: Type of Lesion: KIDNEY: ADENOMA, 1500 MG/KG EHEN TWICE, 75 MG/KG BW DMAB 3 TIMES, SEQUENTIALLY OVER 3 WK): 6/10 (60%), 6/14 (43%), 28%, not significant | tumour outcome (control, treated, inhibition, significance) (3,2'-DIMETHYL-1,4-, 3,2'-DIMETHYL-1,4-, 1% IN DIET FOR 4 WK BEGINNING 1 D PRIOR TO FIRST CARCINOGEN DOSE (STUDY DURATION: 36 WK), Strain/Sex: F344/MALE, Target Tissue: Type of Lesion: LUNG: ADENOMA, 1500 MG/KG EHEN TWICE, 75 MG/KG BW DMAB 3 TIMES, SEQUENTIALLY OVER 3 WK): 5/10 (50%), 9/14 (64%), -28%, not significant | tumour outcome (control, treated, inhibition, significance) (3,2'-DIMETHYL-4-AMINO-, 3,2'-DIMETHYL-4-AMINO-, 2% IN DIET FOR 32 WK BEGINNING 1 WK POST CARCINOGEN TREATMENT (STUDY DURATION: 36 WK0, Strain/Sex: F344/MALE, Target Tissue: Type of Lesion: KIDNEY: NEPHROBLASTOMA, 1500 MG/KG BW EHEN TWICE, 75 MG/KG BW 3 TIMES ADMINISTERED OVER FIRST 3 WK): 2/14 (14%), 3/12 (25%), -79%, not significant | tumour outcome (control, treated, inhibition, significance) (3,2'-DIMETHYL-4-AMINO-, 3,2'-DIMETHYL-4-AMINO-, 2% IN DIET FOR 32 WK BEGINNING 1 WK POST CARCINOGEN TREATMENT (STUDY DURATION: 36 WK), Strain/Sex: F244/MALE, Target Tissue: Type of Lesion: THYROID GLAND: CARCINOMA, 1500 MG/KG BW EHEN TWICE, 75 MG/KG BW 3 TIMES ADMINISTERED OVER FIRST 3 WK): 3/14 (21%), 2/12 (17%), 19%, not significant | tumour outcome (control, treated, inhibition, significance) (3,2'-DIMETHYL-4-AMINO-, 3,2'-DIMETHYL-4-AMINO-, 2% IN DIET FOR 32 WK BEGINNING 1 WK POST CARCINOGEN TREATMENT (STUDY DURATION: 36 WK), Strain/Sex: F344/MALE, Target Tissue: Type of Lesion: KIDNEY: ADENOMA, 1500 MG/KG BW EHEN TWICE, 75 MG/KG BW 3 TIMES ADMINISTERED OVER FIRST 3 WK): 6/14 (43%), 7/12 (58%), -35%, not significant | tumour outcome (control, treated, inhibition, significance) (3,2'-DIMETHYL-4-AMINO-, 3,2'-DIMETHYL-4-AMINO-, 2% IN DIET FOR 32 WK BEGINNING 1 WK POST CARCINOGEN TREATMENT (STUDY DURATION: 36 WK), Strain/Sex: F344/MALE, Target Tissue: Type of Lesion: KIDNEY: TRANSITIONAL CELL CARCINOMA, 1500 MG/KG BW EHEN TWICE, 75 MG/KG BW 3 TIMES ADMINISTERED OVER FIRST 3 WK): 1/14 (7%), 2/12 (17%), -143%, not significant | tumour outcome (control, treated, inhibition, significance) (3,2'-DIMETHYL-4-AMINO-, 3,2'-DIMETHYL-4-AMINO-, 2% IN DIET FOR 32 WK BEGINNING 1 WK POST CARCINOGEN TREATMENT (STUDY DURATION: 36 WK), Strain/Sex: F344/MALE, Target Tissue: Type of Lesion: LARGE INTESTINE: CARCINOMA, 1500 MG/KG BW EHEN TWICE, 75 MG/KG BW 3 TIMES ADMINISTERED OVER FIRST 3 WK): 3/14 (21%), 4/12 (33%), -57%, not significant | tumour outcome (control, treated, inhibition, significance) (3,2'-DIMETHYL-4-AMINO-, 3,2'-DIMETHYL-4-AMINO-, 2% IN DIET FOR 32 WK BEGINNING 1 WK POST CARCINOGEN TREATMENT (STUDY DURATION: 36 WK), Strain/Sex: F344/MALE, Target Tissue: Type of Lesion: LIVER: HEPATOCELLULAR CARCINOMA, 15OO MG/KG BW EHEN TWICE, 75 MG/KG BW 3 TIMES ADMINISTERED OVER FIRST 3 WK): 6/14 (43%), 1/12 (8%), 81%, not significant | tumour outcome (control, treated, inhibition, significance) (3,2'-DIMETHYL-4-AMINO-, 3,2'-DIMETHYL-4-AMINO-, 2% IN DIET FOR 32 WK BEGINNING 1 WK POST CARCINOGEN TREATMENT (STUDY DURATION: 36 WK), Strain/Sex: F344/MALE, Target Tissue: Type of Lesion: LUNG: ADENOMA, 1500 MG/KG BW EHEN TWICE, 75 MG/KG BW 3 TIMES ADMINISTERED OVER FIRST 3 WK): 7/14 (50%), 9/12 (75%), -50%, not significant
